PubChem BioAssay (NCI)
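How tested: cells in 96-well plates exposed to compound for 48 hours at five concentrations. GI50 = concentration required for 50% inhibition of growth. Definition used: TGI = concentration required for complete inhibition of growth.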

Columns and labels:
Experiment in all cases: growth of human tumour cells (NCI), 48 h
[1] = test system: 786-0 renal
[2] = test system: SNB-75 CNS
[3] = test system: CAKI-1 renal
[4] = test system: OVCAR-8 ovarian
[5] = test system: SF-268 CNS
[6] = test system: A498 renal
[7] = test system: RXF 393 renal
[8] = test system: HCT-15 colon
[9] = test system: IGROV1 ovarian
[10] = test system: SK-OV-3 ovarian
[11] = test system: UO-31 renal
[12] = test system: CCRF-CEM leukemia
[13] = test system: HOP-92 NSCLC
[14] = test system: DU-145 prostate
[15] = test system: OVCAR-3 ovarian
[16] = test system: UACC-62 melanoma
[17] = test system: NCI-H226 lung
[18] = test system: HOP-62 NSCLC
[19] = test system: MCF7 breast
[20] = test system: NCI-H23 lung
[21] = test system: HT29 colon
[22] = test system: HL-60(TB) leukemia
[23] = test system: HS 578T breast
[24] = test system: ACHN renal
[25] = test system: MOLT-4 leukemia
[26] = test system: MALME-3M melanoma
[27] = test system: SF-539 CNS
[28] = test system: SNB-19 CNS
[29] = test system: LOX IMVI melanoma
[30] = test system: NCI-H522 lung
[31] = test system: SK-MEL-5 melanoma
[32] = test system: MDA-MB-435
[33] = test system: T-47D breast
[34] = test system: SW-620 colon
[35] = test system: SR leukemia
[36] = test system: HCC-2998 colon
[37] = test system: K-562 leukemia
[38] = test system: SF-295 CNS
[39] = test system: OVCAR-4 ovarian
[40] = test system: U251 CNS
[41] = test system: BT-549 breast
[42] = test system: NCI-H460 lung
[43] = test system: NCI/ADR-RES ovarian
[44] = test system: EKVX NSCLC
[45] = test system: OVCAR-5 ovarian
[46] = test system: UACC-257 melanoma
[47] = test system: SK-MEL-2 melanoma
[48] = test system: A549 NSCLC
[49] = test system: TK-10 renal
[50] = test system: HCT-116 colon
[51] = test system: RPMI-8226 leukemia
[52] = test system: MDA-MB-231 breast
[53] = test system: PC-3 prostate
[54] = test system: KM12 colon
[55] = test system: SN12C renal
[56] = test system: SK-MEL-28 melanoma
[57] = test system: COLO 205 colon

## CCN(CC)c1ccc(/C=N/NC(=O)c2ccc(S(N)(=O)=O)cc2)cc1
[1]
  GI50: 610 nM
  TGI: 4670 nM
[2]
  GI50: 496 nM
  TGI: 5910 nM
[3]
  GI50: 488 nM
  TGI: 25800 nM
[4]
  GI50: 406 nM
  TGI: > 52600 nM
[5]
  GI50: 328 nM
  TGI: 25800 nM
[6]
  GI50: 4260 nM
  TGI: 29300 nM
[7]
  GI50: 1100 nM
  TGI: 3800 nM
[8]
  GI50: 419 nM
  TGI: 44200 nM
[9]
  GI50: 690 nM
  TGI: > 100000 nM
[10]
  GI50: 533 nM
  TGI: 21400 nM
[11]
  GI50: 487 nM
  TGI: 24000 nM
[12]
  GI50: 178 nM
  TGI: > 100000 nM
[13]
  GI50: 430 nM
  TGI: 14600 nM
[14]
  GI50: 828 nM
  TGI: > 58600 nM
[15]
  GI50: 244 nM
  TGI: > 100000 nM
[16]
  GI50: 499 nM
  TGI: 8780 nM
[17]
  GI50: 1390 nM
  TGI: 23900 nM
[18]
  GI50: 338 nM
  TGI: 11900 nM
[19]
  GI50: 488 nM
  TGI: > 100000 nM
[20]
  GI50: 2110 nM
  TGI: > 100000 nM
[21]
  GI50: 614 nM
  TGI: 17300 nM
[22]
  GI50: 255 nM
  TGI: 4380 nM
[23]
  GI50: 2370 nM
  TGI: 40800 nM
[24]
  GI50: 605 nM
  TGI: 22300 nM
[25]
  GI50: 373 nM
  TGI: 15000 nM
[26]
  GI50: 856 nM
  TGI: 11300 nM
[27]
  GI50: 488 nM
  TGI: 8110 nM
[28]
  GI50: 1120 nM
  TGI: > 64800 nM
[29]
  GI50: 271 nM
  TGI: 4510 nM
[30]
  GI50: 403 nM
  TGI: 23200 nM
[31]
  GI50: 1420 nM
  TGI: > 100000 nM
[32]
  GI50: 975 nM
  TGI: > 100000 nM
[33]
  GI50: 686 nM
  TGI: > 72300 nM
[34]
  GI50: 597 nM
  TGI: > 100000 nM
[35]
  GI50: 83.9 nM
  TGI: 3070 nM
[36]
  GI50: 612 nM
  TGI: 51000 nM
[37]
  GI50: 479 nM
  TGI: > 100000 nM
[38]
  GI50: 739 nM
  TGI: 18300 nM
[39]
  GI50: 397 nM
  TGI: > 77600 nM
[40]
  GI50: 268 nM
  TGI: 18700 nM
[41]
  GI50: 1000 nM
  TGI: 8290 nM
[42]
  GI50: 510 nM
  TGI: 10400 nM
[43]
  GI50: 3110 nM
  TGI: > 100000 nM
[44]
  GI50: 782 nM
  TGI: > 82100 nM
[45]
  GI50: 2580 nM
  TGI: > 100000 nM
[46]
  GI50: 869 nM
  TGI: 7900 nM
[47]
  GI50: 3170 nM
  TGI: 20700 nM
[48]
  GI50: 1780 nM
  TGI: > 100000 nM
[49]
  GI50: 1760 nM
  TGI: 47800 nM
[50]
  GI50: 324 nM
  TGI: 19200 nM
[51]
  GI50: 2840 nM
  TGI: 13700 nM
[52]
  GI50: 525 nM
  TGI: 64300 nM
[53]
  GI50: 469 nM
  TGI: 73400 nM
[54]
  GI50: 811 nM
  TGI: > 63300 nM
[55]
  GI50: 957 nM
  TGI: > 100000 nM
[56]
  GI50: 495 nM
  TGI: > 67400 nM
[57]
  GI50: 437 nM
  TGI: 19000 nM
